Results as given in PMC9721025, “Pharmacokinetic study of the main components of Tanreqing capsules and Tanreqing injections in beagles by liquid chromatography–tandem mass spectrometry” (Chinese Medicine, 2022).
Like-named read-outs stand apart in the source and are kept apart here.

Tests used:
[1] = Stability of analytes in dog plasma (QC samples); type: in vitro ADME
Procedure, shortened: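 QC samples in dog plasma at three concentration levels, three replicates each, tested for short-term (6 h room temperature), long-term (−80 °C, 30 days) and freeze–thaw (three cycles, −80 °C to room temperature) stability. Working solutions prepared in methanol/water 10:90.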

[2] = Tanreqing injection, cited from earlier work
[3] = Pharmacokinetics in beagles, multiple-dose regimen (once per day for 7 days) of TRQI or TRQC, plasma LC-MS/MS; type: in vivo; conditions: beagle, dog
Procedure, shortened: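 Six beagles dosed once daily for 7 days with TRQI (0.5 mL/kg injection) or TRQC (0.09 g/kg), crossover after washout. Plasma sampled 0–24 h after seventh dose, methanol/acetonitrile-precipitated, measured by LC–MS/MS. Steady-state parameters by non-compartmental analysis.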

[4] = Pharmacokinetics in beagles, single-dose regimen of TRQI (i.v.) or TRQC (oral), plasma LC-MS/MS; type: in vivo, beagle; conditions: for AUC(0-t) / Cmax / Tmax / half-life: beagle, dog, plasma; for AUC(0-t): read-out: AUC0–24 h; for Cmax / Tmax / half-life: mean of six beagles
Procedure, shortened: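 Crossover study in six beagles (9.0–12.0 kg) with a 7-day washout: TRQI 0.5 mL/kg i.v. or TRQC 0.09 g/kg orally, single dose. Plasma was sampled at 14 points to 24 h, protein-precipitated, analysed by LC–MS/MS, with parameters from non-compartmental analysis.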

[5] = n = 3, high QC: nominal 200 ng/mL baicalin, 1000 ursodeoxycholic acid, 100 chenodeoxycholic acid and chlorogenic acid
[6] = n = 3, low QC: nominal 4 ng/mL baicalin, 20 ursodeoxycholic acid, 2 chenodeoxycholic acid and chlorogenic acid
[7] = n = 3, middle QC: nominal 20 ng/mL baicalin, 100 ursodeoxycholic acid, 10 chenodeoxycholic acid and chlorogenic acid
[8] = both sexes, iv, TRQI 0.5 mL/kg once per day for 7 days, mean
[9] = both sexes, po, TRQC 0.09 g/kg once per day for 7 days, mean
[10] = both sexes, iv, single i.v. dose of TRQI 0.5 mL/kg
[11] = both sexes, single oral dose of TRQC 0.09 g/kg

Compound: C[C@H](CCC(=O)O)[C@H]1CC[C@H]2[C@@H]3[C@@H](O)C[C@@H]4C[C@H](O)CC[C@]4(C)[C@H]3CC[C@]12C [Ursodeoxycholic acid, ursodeoxycholic acid]
- Freeze-thaw stability (3 cycles) Mean ± S.D. concentration [1, 5]: 1048.41 ± 75.10 ng/mL
- Long-term stability (30 days at – 80 °C) Mean ± S.D. concentration [1, 5]: 1081.75 ± 20.70 ng/mL
- Short-term stability (6 h at room temperature) Mean ± S.D concentration [1, 5]: 1104.46 ± 16.75 ng/mL
- Freeze-thaw stability (3 cycles) Mean ± S.D. concentration [1, 6]: 18.47 ± 1.66 ng/mL
- Long-term stability (30 days at – 80 °C) Mean ± S.D. concentration [1, 6]: 18.77 ± 0.41 ng/mL
- Short-term stability (6 h at room temperature) Mean ± S.D concentration [1, 6]: 19.38 ± 0.97 ng/mL
- Freeze-thaw stability (3 cycles) Mean ± S.D. concentration [1, 7]: 87.08 ± 1.95 ng/mL
- Long-term stability (30 days at – 80 °C) Mean ± S.D. concentration [1, 7]: 90.80 ± 1.57 ng/mL
- Short-term stability (6 h at room temperature) Mean ± S.D concentration [1, 7]: 97.83 ± 0.62 ng/mL
- t1/2 ([2]; Hu's study): 0.933 h
- t1/2 ([2]; another study): 0.233 h
- AUC(0-inf) ([3]; both sexes, iv, 0.5 mL/kg, TRQI 0.5 mL/kg for 7 days, Mean): 19100 ng·h/mL
- AUC(0-t) ([3]; both sexes, iv, 0.5 mL/kg, TRQI 0.5 mL/kg for 7 days, Mean, read-out: AUC0–24 h): 16400 ng·h/mL
- Cmax at 7 days [3, 8]: 5060 ng/mL
- half-life at 7 days [3, 8]: 6.84 h
- AUC(0-inf) ([3]; both sexes, po, 0.09 g/kg, TRQC 0.09 g/kg for 7 days, Mean): 35300 ng·h/mL
- AUC(0-t) ([3]; both sexes, po, 0.09 g/kg, TRQC 0.09 g/kg for 7 days, Mean, read-out: AUC0–24 h): 28500 ng·h/mL
- Cmax at 7 days [3, 9]: 3400 ng/mL
- Tmax at 7 days [3, 9]: 5.69 h
- half-life at 7 days [3, 9]: 12 h
- AUC(0-inf) ([3]; female, iv, 0.5 mL/kg, TRQI 0.5 mL/kg for 7 days, beagle No. 4): 14900 ng·h/mL
- AUC(0-t) ([3]; female, iv, 0.5 mL/kg, TRQI 0.5 mL/kg for 7 days, beagle No. 4, read-out: AUC0–24 h): 4740 ng·h/mL
- AUC(0-inf) ([3]; female, iv, 0.5 mL/kg, TRQI 0.5 mL/kg for 7 days, beagle No. 5): 4220 ng·h/mL
- AUC(0-t) ([3]; female, iv, 0.5 mL/kg, TRQI 0.5 mL/kg for 7 days, beagle No. 5, read-out: AUC0–24 h): 2560 ng·h/mL
- AUC(0-inf) ([3]; female, iv, 0.5 mL/kg, TRQI 0.5 mL/kg for 7 days, beagle No. 6): 2810 ng·h/mL
- AUC(0-t) ([3]; female, iv, 0.5 mL/kg, TRQI 0.5 mL/kg for 7 days, beagle No. 6, read-out: AUC0–24 h): 2670 ng·h/mL
- AUC(0-inf) ([3]; female, po, 0.09 g/kg, TRQC 0.09 g/kg for 7 days, beagle No. 4): 112000 ng·h/mL
- AUC(0-t) ([3]; female, po, 0.09 g/kg, TRQC 0.09 g/kg for 7 days, beagle No. 4, read-out: AUC0–24 h): 109000 ng·h/mL
- AUC(0-inf) ([3]; female, po, 0.09 g/kg, TRQC 0.09 g/kg for 7 days, beagle No. 5): 20100 ng·h/mL
- AUC(0-t) ([3]; female, po, 0.09 g/kg, TRQC 0.09 g/kg for 7 days, beagle No. 5, read-out: AUC0–24 h): 10500 ng·h/mL
- AUC(0-inf) ([3]; female, po, 0.09 g/kg, TRQC 0.09 g/kg for 7 days, beagle No. 6): 45000 ng·h/mL
- AUC(0-t) ([3]; female, po, 0.09 g/kg, TRQC 0.09 g/kg for 7 days, beagle No. 6, read-out: AUC0–24 h): 17600 ng·h/mL
- AUC(0-inf) ([3]; male, iv, 0.5 mL/kg, TRQI 0.5 mL/kg for 7 days, beagle No. 1): 75900 ng·h/mL
- AUC(0-t) ([3]; male, iv, 0.5 mL/kg, TRQI 0.5 mL/kg for 7 days, beagle No. 1, read-out: AUC0–24 h): 72400 ng·h/mL
- AUC(0-inf) ([3]; male, iv, 0.5 mL/kg, TRQI 0.5 mL/kg for 7 days, beagle No. 2): 1860 ng·h/mL
- AUC(0-t) ([3]; male, iv, 0.5 mL/kg, TRQI 0.5 mL/kg for 7 days, beagle No. 2, read-out: AUC0–24 h): 1720 ng·h/mL
- AUC(0-inf) ([3]; male, iv, 0.5 mL/kg, TRQI 0.5 mL/kg for 7 days, beagle No. 3): 14600 ng·h/mL
- AUC(0-t) ([3]; male, iv, 0.5 mL/kg, TRQI 0.5 mL/kg for 7 days, beagle No. 3, read-out: AUC0–24 h): 14500 ng·h/mL
- AUC(0-inf) ([3]; male, po, 0.09 g/kg, TRQC 0.09 g/kg for 7 days, beagle No. 1): 2940 ng·h/mL
- AUC(0-t) ([3]; male, po, 0.09 g/kg, TRQC 0.09 g/kg for 7 days, beagle No. 1, read-out: AUC0–24 h): 2760 ng·h/mL
- AUC(0-inf) ([3]; male, po, 0.09 g/kg, TRQC 0.09 g/kg for 7 days, beagle No. 2): 24400 ng·h/mL
- AUC(0-t) ([3]; male, po, 0.09 g/kg, TRQC 0.09 g/kg for 7 days, beagle No. 2, read-out: AUC0–24 h): 23900 ng·h/mL
- AUC(0-inf) ([3]; male, po, 0.09 g/kg, TRQC 0.09 g/kg for 7 days, beagle No. 3): 7520 ng·h/mL
- AUC(0-t) ([3]; male, po, 0.09 g/kg, TRQC 0.09 g/kg for 7 days, beagle No. 3, read-out: AUC0–24 h): 7190 ng·h/mL
- time at which oral absorption reached a peak ([4]; TRQC, oral, dogs): ~5 h
- AUC(0-t) ([4]; both sexes, iv, 0.5 mL/kg, single TRQI 0.5 mL/kg, Mean): 4080 ng·h/mL
- Cmax [4, 10]: 2750 ng/mL
- Tmax [4, 10]: 0.08 h
- half-life [4, 10]: 27.7 h
- AUC(0-t) ([4]; both sexes, po, 0.09 g/kg, single TRQCs 0.09 g/kg, Mean): 4400 ng·h/mL
- Cmax [4, 11]: 1330 ng/mL
- Tmax [4, 11]: 5.94 h
- half-life [4, 11]: 10.4 h
- AUC(0-t) ([4]; female, iv, 0.5 mL/kg, single TRQI 0.5 mL/kg, beagle No 4): 898 ng·h/mL
- AUC(0-t) ([4]; female, iv, 0.5 mL/kg, single TRQI 0.5 mL/kg, beagle No 5): 1160 ng·h/mL
- AUC(0-t) ([4]; female, iv, 0.5 mL/kg, single TRQI 0.5 mL/kg, beagle No 6): 992 ng·h/mL
- AUC(0-t) ([4]; female, po, 0.09 g/kg, single TRQCs 0.09 g/kg, beagle No 4): 11300 ng·h/mL
- AUC(0-t) ([4]; female, po, 0.09 g/kg, single TRQCs 0.09 g/kg, beagle No 5): 1880 ng·h/mL
- AUC(0-t) ([4]; female, po, 0.09 g/kg, single TRQCs 0.09 g/kg, beagle No 6): 3700 ng·h/mL
- AUC(0-t) ([4]; male, iv, 0.5 mL/kg, single TRQI 0.5 mL/kg, beagle No 1): 18200 ng·h/mL
- AUC(0-t) ([4]; male, iv, 0.5 mL/kg, single TRQI 0.5 mL/kg, beagle No 2): 1100 ng·h/mL
- AUC(0-t) ([4]; male, iv, 0.5 mL/kg, single TRQI 0.5 mL/kg, beagle No 3): 2120 ng·h/mL
- AUC(0-t) ([4]; male, po, 0.09 g/kg, single TRQCs 0.09 g/kg, beagle No 1): 1700 ng·h/mL
- AUC(0-t) ([4]; male, po, 0.09 g/kg, single TRQCs 0.09 g/kg, beagle No 2): 3190 ng·h/mL
- AUC(0-t) ([4]; male, po, 0.09 g/kg, single TRQCs 0.09 g/kg, beagle No 3): 4590 ng·h/mL
